Results on seven compounds are retold here after patent US5043332A, “Novel 11β-substituted -19-nor-steriods” (priority 1981, dated 1991).

The assay has as its system thymocytes of surrenalectomized rats. Nature of the assay: Antiglucocorticoidal activity, incorporation of tritiated uridine in thymocytes. The assay is classed as cell-based. Conditions: for inhibition at 1 µM / inhibition at 0.1 µM / inhibition at 0.01 µM: Rattus norvegicus, Thymocyte, read-out: % inhibition of effect of Dexamethasone; for inhibition at 1 µM / % inhibition of effect of Dexamethasone (symbol): 5 × 10^-8 M dexamethasone + test product 10^-6 M; for inhibition at 0.1 µM: 5 × 10^-8 M dexamethasone + test product 10^-7 M; for inhibition at 0.01 µM: 5 × 10^-8 M dexamethasone + test product 10^-8 M. How it is done:
III. Antiglucocorticoidal Activity
The test used was that of Dausse et al [Molecular Pharmacology, Vol. 13 (1977), p. 948-955] entitled "The relationship between glucocorticoid structure and effects upon thymocytes" for […] thymocytes. The thymocytes of surrenalectomized rats were incubated at 37° C. for 3 hours in a nutritive medium containing 5×10^-8 M of dexamethasone in the presence or absence of the test compound at different concentrations. Tritiated uridine was added and incubation was continued for one hour. The incubates were cooled and treated with a 5% trifluoroacetic acid solution and the mixture was filtered with Whatman GF/A paper. The filter was washed 3 times with a 5% trifluoroacetic acid solution and retained radioactivity on the filter was determined.

Take `CC#C[C@]1(O)CC[C@H]2[C@@H]3CCC4=CC(=O)C(=CN5CCOCC5)CC4=C3[C@@H](c3ccc(N(C)C)cc3)C[C@@]21C` [Example 4, 2-(4-morpholinylmethylene)-11β-(4-dimethylaminophenyl)-17α-(prop-1-ynyl)-Δ^4,9-estradiene-17β-ol-3-one]: the inhibition (commonly the change of the read-out against control, counted positive when it falls) at 1 µM is 51%; the inhibition at 0.1 µM was determined as 0%; the inhibition at 0.01 µM was found to be 0%.
Turning to `CC#C[C@]1(O)CC[C@H]2[C@@H]3CCC4=Cc5oncc5CC4=C3[C@@H](c3ccc(N(C)C)cc3)C[C@@]21C` [Example 7, 11β-(4-dimethylaminophenyl)-17α-(prop-1-ynyl)-isoxazolo[4,5-b]-Δ^4,9-estradiene-17β-ol], the “% inhibition of effect of Dexamethasone (symbol)” value was “* (A dose of 10^-6 M inhibited the effect of dexamethasone totally)”, the inhibition at 0.1 µM stood at 27% and the inhibition at 0.01 µM amounted to 0%.
As to `C[C@@H]1C[C@H]2[C@@H]3CCC4=CC(=O)C=C[C@]4(C)[C@@]3(F)[C@@H](O)C[C@]2(C)[C@@]1(O)C(=O)CO` [dexamethasone, reference compound], the “effect on incorporation of tritiated uridine (in words)” value (glucocorticoid alone) is “provoked a lessening of incorporation of tritiated uridine”.
As for `CC#C[C@]1(O)CC[C@H]2[C@@H]3CCC4=C(CCC(=O)C4)[C@H]3[C@@H](c3cccc(OC)c3)C[C@@]21C` [Example 6, 11β-(3-methoxyphenyl)-17α-(prop-1-ynyl)-Δ^5(10) -estrene-17β-ol-3-one], the inhibition at 1 µM amounted to 68%, the inhibition at 0.1 µM amounted to 0% and the inhibition at 0.01 µM was determined as 0%.
As to `CC#C[C@]1(O)CC[C@H]2[C@@H]3CCC4=CC(=O)C(=COC(C)=O)CC4=C3[C@@H](c3ccc(N(C)C)cc3)C[C@@]21C` [Example 3, 2-(acetyloxymethylene)-11β-(4-dimethylaminophenyl)-17α-(prop-1-ynyl)-Δ^4,9-estradiene-17β-ol-3-one], the inhibition at 1 µM came out at 60%, the inhibition at 0.1 µM amounted to 0% and the inhibition at 0.01 µM was determined as 0%.
As to `CC#C[C@]1(O)CC[C@H]2[C@@H]3CCc4cc(O)ccc4[C@H]3[C@@H](c3ccc(N(C)C)cc3)C[C@@]21C` [2 (17 OH), 11β-(4-dimethylaminophenyl)-17α-(prop-1-ynyl)-Δ^1,3,5(10) -estratriene-3,17β-diol], the “% inhibition of effect of Dexamethasone (symbol)” value is given as “* (A dose of 10^-6 M inhibited the effect of dexamethasone totally)”, the inhibition at 0.1 µM was found to be 91% and the inhibition at 0.01 µM was determined as 41%.
Turning to `C/C=C/[C@]1(O)CC[C@H]2[C@@H]3CCC4=C(CCC(=O)C4)[C@H]3[C@@H](c3cccc(OC)c3)C[C@@]21C` [6 (17α propenyle), 11β-(3-methoxyphenyl)-17α-(E)-(prop-1-enyl)-Δ^5(10) -estrene-17β-ol-3-one], the inhibition at 1 µM was 56%, the inhibition at 0.1 µM was found to be 0% and the inhibition at 0.01 µM stood at 0%.
